Tests used:
Type in all cases: cell-based
HEK-293 cells = assay: In vitro cytotoxicity, SRB cell viability assay, normal kidney HEK-293; conditions: Homo sapiens, HEK293, HEK-293 normal kidney cells, 48 h, mean ± SD, triplicate
Experimental: (§1) For Hepatocarcinoma (HepG2), human lung carcinoma (LU-1), human colorectal adenocarcinoma (SW480) and human normal embryonic kidney (HEK-293) cell lines, the culture medium was Dulbecco’s Modified Eagle’s Medium (DMEM) (Hyclone, USA). The medium supplementation included 10% fetal bovine serum (Hyclone), 100 units/ml penicillin, and 100 μg/ml streptomycin at 37 °C in an atmosphere with 5% CO2 and 95% humidity. For the human leukemia (HL-60) cell line, the maintenance was performed in RPMI-1640 medium (Life Technologies, Inc.) supplemented with 10% heat-inactivated fetal bovine serum (Hyclone) and 100 units/ml penicillin, and 100 μg/ml streptomycin.
(§2) Cell viability assay was conducted using SRB method for HepG2, LU-1, SW480 and HEK-293 cell lines, based on the measurement of protein content. Cells were plated with 180 μl growth medium into 96-microwell plates (4 × 10^4 cells per well) and allowed to grow overnight. Test compounds at various concentrations including 20 μM; 4 μM; 0.8 μM; 0.16 μM with incubation medium were supplemented and cultivated for additional 48 h in the same conditions. Afterwards, the removal of the medium was performed and cold 20% (wt/vol) TCA was used to fix the cell monolayer attached to the wall for 1 h at 4 °C, followed by staining with 1X SRB staining solution at room temperature for 30 min and the removal of the residual dye via repeated washing with 1% (v/v) acetic acid. For OD determination at 515 nm, an ELISA Plate Reader (Bio-Rad) was utilized to analyze the protein-bound dye, which dissolved in 10 mM Tris base solution. […] The cell survival rate (SR) was calculated as SR = [(ODt − OD0)/(ODc − OD0)] × 100, where the subscript 0, t and c represent time-zero, […] and the DMSO control sample.

HL-60 cells = assay: In vitro cytotoxicity, MTT assay, HL-60; conditions: Homo sapiens; HL-60, MTT, 72 h, mean ± SD, triplicate
Experimental: as §1
For HL-60 cell line, 5 × 10^3 cells/well were seeded in 96-multiwell plate and cultured overnight. The test compounds were serially diluted to the wells with concentrations ranging at 20 μM; 4 μM; 0.8 μM and 0.16 μM then incubated for 72 h. Thereafter, each well was added with 10 μl of MTT (5 mg/ml in 1X PBS), followed by incubation for 3 h and centrifugation at 1,500 rpm for 10 min. The media were discarded then added 150 μl DMSO to each well. Optical density was measured using a microplate reader at 540 nm.

HepG2 cells = assay: In vitro cytotoxicity, SRB cell viability assay, HepG2; conditions: Homo sapiens, 48 h, mean ± SD, triplicate
Experimental: as §1, §2

LU-1 cells = assay: In vitro cytotoxicity, SRB cell viability assay, LU-1; conditions: Homo sapiens, Lu1; LU-1, SRB, 48 h, mean ± SD, triplicate
Experimental: as §1, §2

SW480 cells = assay: In vitro cytotoxicity, SRB cell viability assay, SW480; conditions: Homo sapiens, 48 h, mean ± SD, triplicate
Experimental: as §1, §2

SMILES	IC50 (HEK-293 cells)	IC50 (HL-60 cells)	IC50 (HepG2 cells)	IC50 (LU-1 cells)	IC50 (SW480 cells)
O=C1Nc2ccccc2/C1=C1/Nc2ccccc2C1=O [Compound 1, indirubin]	> 20 µM	> 20 µM	> 20 µM	> 20 µM	> 20 µM
O=C1Nc2ccccc2C1=C1Nc2ccccc2C1=NO [Compound 2, indirubin-3′-oxime, reference compound]	14.2 ± 0.71 µM	16.5 ± 0.94 µM	16 ± 0.62 µM	16.4 ± 1.05 µM	15.7 ± 0.74 µM
C#CCN1C(=O)/C(=C2\Nc3ccccc3C2=O)c2ccccc21 [Compound 3]	> 20 µM	> 20 µM	> 20 µM	> 20 µM	> 20 µM
C#CCN1C(=O)/C(=C2\Nc3ccccc3\C2=N/O)c2ccccc21 [Compound 4]	16.2 ± 0.33 µM	15.3 ± 0.35 µM	> 20 µM	19.6 ± 1.23 µM	18.6 ± 0.91 µM
O=C(/C=C/c1ccccc1)c1ccc(OCCn2cc(CN3C(=O)/C(=C4\Nc5ccccc5\C4=N/O)c4ccccc43)nn2)cc1O [Compound 6a]	3.21 ± 0.43 µM	2.39 ± 0.46 µM	3.56 ± 0.75 µM	2.26 ± 0.32 µM	3.36 ± 0.64 µM
COc1cc(/C=C/C(=O)c2ccc(OCCn3cc(CN4C(=O)/C(=C5\Nc6ccccc6\C5=N/O)c5ccccc54)nn3)cc2O)cc(OC)c1OC [Compound 6b]	> 20 µM	> 20 µM	> 20 µM	> 20 µM	> 20 µM
COc1ccccc1/C=C/C(=O)c1ccc(OCCn2cc(CN3C(=O)/C(=C4\Nc5ccccc5\C4=N/O)c4ccccc43)nn2)cc1O [Compound 6c]	1.19 ± 0.12 µM	1.43 ± 0.22 µM	3.38 ± 0.68 µM	2.99 ± 0.55 µM	3.8 ± 0.52 µM
COc1cccc(/C=C/C(=O)c2ccc(OCCn3cc(CN4C(=O)/C(=C5\Nc6ccccc6\C5=N/O)c5ccccc54)nn3)cc2O)c1 [Compound 6d]	2.01 ± 0.64 µM	3.4 ± 0.76 µM	3.76 ± 0.75 µM	2.85 ± 0.74 µM	4.46 ± 1.18 µM
COc1ccc(/C=C/C(=O)c2ccc(OCCn3cc(CN4C(=O)/C(=C5\Nc6ccccc6\C5=N/O)c5ccccc54)nn3)cc2O)cc1 [Compound 6e]	6.98 ± 0.25 µM	3.27 ± 0.37 µM	4.62 ± 1.07 µM	3.28 ± 0.48 µM	4.66 ± 0.92 µM
CCOc1ccccc1/C=C/C(=O)c1ccc(OCCn2cc(CN3C(=O)/C(=C4\Nc5ccccc5\C4=N/O)c4ccccc43)nn2)cc1O [Compound 6f]	1.03 ± 0.11 µM	0.98 ± 0.12 µM	2.01 ± 0.43 µM	1.3 ± 0.14 µM	2.54 ± 0.25 µM
CCOc1cccc(/C=C/C(=O)c2ccc(OCCn3cc(CN4C(=O)/C(=C5\Nc6ccccc6\C5=N/O)c5ccccc54)nn3)cc2O)c1 [Compound 6g]	1.8 ± 0.21 µM	4.82 ± 0.46 µM	5.68 ± 0.71 µM	3.96 ± 0.62 µM	4.1 ± 0.57 µM
CCOc1ccc(/C=C/C(=O)c2ccc(OCCn3cc(CN4C(=O)/C(=C5\Nc6ccccc6\C5=N/O)c5ccccc54)nn3)cc2O)cc1 [Compound 6h]	9.74 ± 0.53 µM	6.5 ± 0.98 µM	14.2 ± 1.79 µM	8.74 ± 0.55 µM	14.1 ± 1.18 µM
CCCOc1ccccc1/C=C/C(=O)c1ccc(OCCn2cc(CN3C(=O)/C(=C4\Nc5ccccc5\C4=N/O)c4ccccc43)nn2)cc1O [Compound 6i]	0.85 ± 0.05 µM	1.28 ± 0.34 µM	2.28 ± 0.12 µM	2.07 ± 0.26 µM	3.43 ± 0.84 µM
CCCOc1cccc(/C=C/C(=O)c2ccc(OCCn3cc(CN4C(=O)/C(=C5\Nc6ccccc6\C5=N/O)c5ccccc54)nn3)cc2O)c1 [Compound 6k]	1.92 ± 0.17 µM	1.29 ± 0.14 µM	2.95 ± 0.19 µM	2.5 ± 0.34 µM	2.91 ± 0.13 µM
CCCOc1ccc(/C=C/C(=O)c2ccc(OCCn3cc(CN4C(=O)/C(=C5\Nc6ccccc6\C5=N/O)c5ccccc54)nn3)cc2O)cc1 [Compound 6l]	7.12 ± 0.18 µM	1.28 ± 0.16 µM	3.28 ± 0.25 µM	2.07 ± 0.31 µM	3.03 ± 0.11 µM
CN(C)CCn1cc(CN2C(=O)/C(=C3\Nc4ccccc4\C3=N/O)c3ccccc32)nn1 [Compound 6m]	11.9 ± 1.75 µM	16 ± 0.38 µM	15.3 ± 0.17 µM	8.74 ± 1.06 µM	14.4 ± 0.72 µM
O=C1/C(=C2\Nc3ccccc3\C2=N/O)c2ccccc2N1Cc1cn(CCN2CCCCC2)nn1 [Compound 6n]	9.52 ± 0.07 µM	10.4 ± 0.84 µM	11.7 ± 0.23 µM	10.1 ± 0.44 µM	12.5 ± 0.53 µM
O=C1/C(=C2\Nc3ccccc3\C2=N/O)c2ccccc2N1Cc1cn(CCn2ccnc2)nn1 [Compound 6o]	5.89 ± 0.75 µM	9.39 ± 0.45 µM	11.7 ± 0.26 µM	8.8 ± 0.38 µM	11.2 ± 0.76 µM
O=C1/C(=C2\Nc3ccccc3\C2=N/O)c2ccccc2N1Cc1cn(CCN2CCOCC2)nn1 [Compound 6p]	7.72 ± 0.42 µM	11.2 ± 1.04 µM	10.6 ± 0.79 µM	8.61 ± 0.57 µM	11.7 ± 0.48 µM
Cc1c2ccncc2c(C)c2c1[nH]c1ccccc12 [Ellipticine, reference compound]	0.32 ± 0.03 µM	2.19 ± 1.12 µM	1.93 ± 0.54 µM	2.5 ± 0.82 µM	1.76 ± 0.63 µM

— PMC7351726, “Design, synthesis, structure, in vitro cytotoxic activity evaluation and docking studies on target enzyme GSK-3β of new indirubin-3ʹ-oxime derivatives” (Scientific Reports, 2020)
